Substitutions are numbered along the chain they refer to.
Columns and labels:
Format in all cases: biochemical
[1] = target: T1, nSMase1 (wild-type), zebrafish (Danio rerio, UniProt F1QUD7, S270A); experiment: C6-NBD-ceramide release assay; conditions: 37 °C; basal enzyme, not JNK-treated
T1 construct: gene smpd2a; zebrafish cDNA
T1 sequence (F1QUD7 1-421 S270A): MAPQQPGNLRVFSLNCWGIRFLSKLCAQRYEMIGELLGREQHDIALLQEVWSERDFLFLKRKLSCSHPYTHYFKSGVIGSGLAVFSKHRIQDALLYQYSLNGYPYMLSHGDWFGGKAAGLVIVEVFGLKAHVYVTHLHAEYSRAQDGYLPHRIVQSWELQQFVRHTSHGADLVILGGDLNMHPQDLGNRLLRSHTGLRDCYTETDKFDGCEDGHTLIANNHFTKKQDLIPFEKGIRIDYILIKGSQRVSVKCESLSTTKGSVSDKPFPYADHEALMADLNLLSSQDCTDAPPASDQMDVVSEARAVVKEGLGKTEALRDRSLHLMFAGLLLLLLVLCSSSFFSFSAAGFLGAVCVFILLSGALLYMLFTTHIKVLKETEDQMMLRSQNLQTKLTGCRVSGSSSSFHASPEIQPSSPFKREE

[2] = target: T2, nSMase1 (wild-type), zebrafish (Danio rerio, UniProt F1QUD7); experiment: C6-NBD-ceramide release assay; conditions: 37 °C; basal enzyme, not JNK-treated
T2 construct: gene smpd2a; zebrafish cDNA
T2 sequence (F1QUD7 1-421): T1 sequence (F1QUD7 1-421 S270A) with A270S

mouse JNK1 = target: T3, mouse JNK1 (Mus musculus, UniProt Q91Y86); conditions: 10 μM SP600125; 0.25 mM ATP, 10 mM MgCl2, pH 7.4, 30 °C, 30 min
T3 construct: gene Mapk8; commercial recombinant protein (Cell Signaling Technology)
T3 sequence (Q91Y86 whole entry): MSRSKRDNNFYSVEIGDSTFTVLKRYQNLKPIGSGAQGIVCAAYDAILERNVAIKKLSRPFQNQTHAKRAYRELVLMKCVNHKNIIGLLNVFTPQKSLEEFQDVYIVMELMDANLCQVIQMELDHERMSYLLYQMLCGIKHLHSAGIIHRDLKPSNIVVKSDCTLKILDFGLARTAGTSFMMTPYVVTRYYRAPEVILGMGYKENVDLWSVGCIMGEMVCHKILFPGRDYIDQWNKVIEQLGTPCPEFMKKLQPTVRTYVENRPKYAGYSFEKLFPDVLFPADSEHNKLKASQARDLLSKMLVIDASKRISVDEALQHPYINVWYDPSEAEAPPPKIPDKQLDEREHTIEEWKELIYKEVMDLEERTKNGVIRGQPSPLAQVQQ

CCCCCCCCCCCCC/C=C/[C@@H](O)[C@H](COP(=O)([O-])OCC[N+](C)(C)C)NC(=O)CCCCCNc1ccc([N+](=O)[O-])c2nonc12 [C6-NBD-sphingomyelin]
C6-NBD-ceramide release assay [1]: nSMase activities of the recombinant proteins were determined using C6-NBD-sphingomyelin | C6-NBD-ceramide release assay [2]: nSMase activities of the recombinant proteins were determined using C6-NBD-sphingomyelin

O=C1c2ccccc2-c2n[nH]c3cccc1c23 [SP600125, Anthra[1,9-cd]pyrazol-6(2H)-one]
phosphorylation inhibition at 10 μM (mouse JNK1): wild-type pulsed with SP600125 were not phosphorylated
